# Experimental data reported in patent US10206394B2, “Herbicidal compounds” (Syngenta Participations AG, priority 2014, dated 2019).
# Where two headings read alike, the source gives them in different places.
# What was measured:
# Test in all cases: Glasshouse assay for herbicidal activity (pre- and post-emergence), percentage phytotoxicity
# Format in all cases: in vivo
# [1] = tested on: Alopecurus myosuroides (ALOMY); conditions: Alopecurus myosuroides, Rate 250 g/ha, 100%=total damage, 0%=no damage
# How it was run: (§1)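 Pot-grown, standard soil. PRE: spray 1 d post-sowing; POST: ~12 d. Glasshouse 24/18 °C (warm spp.) / 20/16 °C (cool spp.), 16 h light, 65% RH, watered 2×/day. Visual % damage, 20 DAA PRE, 15 DAA POST.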
# [2] = tested on: Avena fatua (AVEFA); conditions: Avena fatua, Rate 250 g/ha, 100%=total damage, 0%=no damage
# How it was run: as §1
# [3] = tested on: Echinochloa crus-galli (ECHCG); conditions: Echinochloa crus-galli, Rate 250 g/ha, 100%=total damage, 0%=no damage
# How it was run: as §1
# [4] = tested on: Lolium perenne (LOLPE); conditions: Lolium perenne, Rate 250 g/ha, 100%=total damage, 0%=no damage
# How it was run: as §1
# [5] = post-emergence, 360 h, post-emergence, visual assessment 15 DAA, read-out: Post-emergence herbicidal activity (percentage phytotoxicity) ALOMY POST
# [6] = pre-emergence, 480 h, pre-emergence, visual assessment 20 DAA, read-out: Pre-emergence herbicidal activity (percentage phytotoxicity) ALOMY PRE
# [7] = post-emergence, 360 h, post-emergence, visual assessment 15 DAA, read-out: Post-emergence herbicidal activity (percentage phytotoxicity) AVEFA POST
# [8] = pre-emergence, 480 h, pre-emergence, visual assessment 20 DAA, read-out: Pre-emergence herbicidal activity (percentage phytotoxicity) AVEFA PRE
# [9] = post-emergence, 360 h, post-emergence, visual assessment 15 DAA, read-out: Post-emergence herbicidal activity (percentage phytotoxicity) ECHCG POST
# [10] = pre-emergence, 480 h, pre-emergence, visual assessment 20 DAA, read-out: Pre-emergence herbicidal activity (percentage phytotoxicity) ECHCG PRE
# [11] = post-emergence, 360 h, post-emergence, visual assessment 15 DAA, read-out: Post-emergence herbicidal activity (percentage phytotoxicity) LOLPE POST
# [12] = pre-emergence, 480 h, pre-emergence, visual assessment 20 DAA, read-out: Pre-emergence herbicidal activity (percentage phytotoxicity) LOLPE PRE
SMILES,"pest or weed control at 250 g/ha [1, 5]","pest or weed control at 250 g/ha [1, 6]","pest or weed control at 250 g/ha [2, 7]","pest or weed control at 250 g/ha [2, 8]","pest or weed control at 250 g/ha [3, 9]","pest or weed control at 250 g/ha [3, 10]","pest or weed control at 250 g/ha [4, 11]","pest or weed control at 250 g/ha [4, 12]"
C=CCNC(=O)CC1CC(=O)C(c2c(C)cc(-c3ncc(Cl)cn3)cc2C)C1=O (stereo not shown) [Compound B350],100%,100%,100%,90%,100%,100%,100%,100%
Cc1cc(-c2ncc(Cl)cn2)cc(C)c1C1C(=O)CC(CC(=O)N(C)C(C)C)C1=O (stereo not shown) [Compound B351],100%,100%,100%,90%,100%,100%,100%,100%
Cc1cc(-c2ncc(Cl)cn2)cc(C)c1C1C(=O)CC(CC(=O)NC/C=C/Cl)C1=O (stereo not shown) [Compound B352],100%,100%,90%,90%,100%,100%,100%,90%
Cc1cc(-c2ncc(Cl)cn2)cc(C)c1C1C(=O)CC(CC(=O)NCc2cccs2)C1=O (stereo not shown) [Compound B353],90%,80%,100%,90%,100%,100%,100%,90%
Cc1cc(-c2ncc(Cl)cn2)cc(C)c1C1C(=O)CC(CC(=O)NCc2cccc(Cl)c2)C1=O (stereo not shown) [Compound B354],90%,70%,100%,80%,100%,90%,90%,80%
Cc1ccc(CNC(=O)CC2CC(=O)C(c3c(C)cc(-c4ncc(Cl)cn4)cc3C)C2=O)cc1 (stereo not shown) [Compound B355],80%,50%,90%,70%,100%,90%,100%,70%
COc1ccc(CNC(=O)CC2CC(=O)C(c3c(C)cc(-c4ncc(Cl)cn4)cc3C)C2=O)cc1 (stereo not shown) [Compound B356],90%,60%,100%,60%,100%,100%,100%,80%
Cc1cc(-c2ccc(Cl)cn2)cc(C)c1C1C(=O)CC(CC(=O)NCc2cccc(F)c2)C1=O (stereo not shown) [Compound B357],90%,80%,100%,90%,100%,100%,90%,100%
Cc1cc(-c2ccc(Cl)cn2)cc(C)c1C1C(=O)CC(CC(=O)N(C)Cc2cccc(F)c2)C1=O (stereo not shown) [Compound B358],100%,90%,100%,100%,100%,100%,90%,90%
Cc1cc(-c2ccc(Cl)cn2)cc(C)c1C1C(=O)CC(CC(=O)NCc2cccc(Br)c2)C1=O (stereo not shown) [Compound B359],90%,90%,100%,70%,100%,80%,90%,90%
Cc1cc(-c2ccc(Cl)cn2)cc(C)c1C1C(=O)CC(CC(=O)NC(C)C)C1=O (stereo not shown) [Compound B360],100%,100%,100%,100%,100%,100%,100%,100%
